Data on 14 molecules can be found in PubChem BioAssay AID270 (DTP/NCI, 2004).

The test system of this assay is BDF1 mice, s.c. Lewis lung carcinoma, T/C %. The assay can be described thus: NCI In Vivo Anticancer Drug Screen. Data for tumor model Lewis Lung Carcinoma (subcutaneous) in B6D2F1 (BDF1) mice. The gist of the method:
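Transplanted tumors grown in mice; compound vs vehicle dosing; endpoint survival or tumor size; ratio T/C.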

Where [1] appears, read: endpoint: mean tumor weight, dose: 25.0 mg/kg/injection, schedule: Q01DX011 (ip), vehicle: saline, higher = larger tumour.
Setting [2] is: endpoint: mean tumor weight, dose: 50.0 mg/kg/injection, schedule: Q01DX011 (ip), vehicle: saline, higher = larger tumour.
Where [3] appears, read: endpoint: mean tumor weight, dose: 100.0 mg/kg/injection, schedule: Q01DX011 (ip), vehicle: saline, higher = larger tumour.
Setting [4] is: endpoint: mean tumor weight, dose: 12.5 mg/kg/injection, schedule: Q01DX011 (ip), vehicle: saline, higher = larger tumour.
[5] abbreviates: endpoint: median survival time, dose: 100.0 mg/kg/injection, schedule: Q01DX009 (ip), vehicle: Klucel (hydroxypropylcellulose) (HPC), higher = longer survival.

Several values for one entry are separate records, joined by “and”; a condition that tells them apart may be missing. Equal values may be shown once. Records with an inconclusive call do not appear. *1 amine or outer side, *2 acyl side, *3 side chain or, on linkers, in order; H or OH if unused. Where a SMILES comes first, the peptide text is derived from it. Bridges are numbered along the chain shown (N, C = ends). Roman numbers before positions name the chains, in order. [ ]: non-standard residue; d: D form. Actinocin(1to9) = Cc1c2oc3c(C)ccc(C(=O)[*:2])c3nc-2c(C(=O)[*:1])c(N)c1=O; X1 = O=C1CC(C(=O)[*:2])N([*:1])C1; NMeV = CN[CH](C(=O)O)C(C)C; Sar = CNCC(=O)O

Regarding `NC(=O)NO`, the T/C was 66 % of control (endpoint: mean tumor weight (est.), dose: 100.0 mg/kg/injection, schedule: Q01DX009 (ip), vehicle: water, higher = larger tumour); 28 % of control (endpoint: mean tumor weight (est.), dose: 200.0 mg/kg/injection, schedule: Q01DX009 (ip), vehicle: water, higher = larger tumour); 33 % of control (endpoint: mean tumor weight (est.), dose: 400.0 mg/kg/injection, schedule: Q01DX009 (ip), vehicle: water, higher = larger tumour); 58 % of control under setting [1]; 90 % of control under setting [2]; 89 % of control under setting [3]. Moreover, the T/C (endpoint: mean tumor weight, dose: 200.0 mg/kg/injection, schedule: Q01DX011 (ip), vehicle: saline, higher = larger tumour) is 31 % of control; the T/C (endpoint: median survival time, dose: 2.5 mg/kg/injection, schedule: Q08HX024 (ip), vehicle: saline, higher = longer survival) is 92 % of control; the T/C (endpoint: median survival time, dose: 10.0 mg/kg/injection, schedule: Q08HX024 (ip), vehicle: Klucel (hydroxypropylcellulose) (HPC), higher = longer survival) is 181 % of control; the T/C (endpoint: median survival time, dose: 20.0 mg/kg/injection, schedule: Q08HX024 (ip), vehicle: Klucel (hydroxypropylcellulose) (HPC), higher = longer survival) was 181 % of control; the T/C (endpoint: median survival time, dose: 40.0 mg/kg/injection, schedule: Q08HX024 (ip), vehicle: Klucel (hydroxypropylcellulose) (HPC), higher = longer survival) was 95 % of control; the T/C (endpoint: median survival time, dose: 40.0 mg/kg/injection, schedule: Q08HX024 (ip), vehicle: saline, higher = longer survival) is 90 % of control. Further, the T/C was 119 % of control (endpoint: median survival time, dose: 97.0 mg/kg/injection, schedule: Q01DX009 (ip), vehicle: saline, higher = longer survival); 94 % of control (endpoint: median survival time, dose: 100.0 mg/kg/injection, schedule: Q01DX009 (ip), vehicle: water, higher = longer survival); 100 % of control (endpoint: median survival time, dose: 200.0 mg/kg/injection, schedule: Q01DX009 (ip), vehicle: water, higher = longer survival); 56 % of control (endpoint: median survival time, dose: 1250.0 mg/kg/injection, schedule: Q01DX009 (ip), vehicle: saline, higher = longer survival).
Consider `CC(=O)Nc1ccc2nc3ccc(NC(C)=O)cc3[n+](-c3ccccc3)c2c1`, for which the T/C is 61 % of control under setting [4], 79 % of control under setting [1] and 59 % of control under setting [2].
With `NC(Cc1cc([N+](=O)[O-])ccc1CN(CCCl)CCCl)C(=O)O` (centres undefined), the T/C is, setting by setting: (endpoint: median survival time, dose: 1.0 mg/kg/injection, schedule: Q01DX009 (ip), vehicle: Klucel (hydroxypropylcellulose) (HPC), higher = longer survival) 110 % of control; (endpoint: median survival time, dose: 2.0 mg/kg/injection, schedule: Q01DX009 (ip), vehicle: Klucel (hydroxypropylcellulose) (HPC), higher = longer survival) 116 % of control; (endpoint: median survival time, dose: 3.12 mg/kg/injection, schedule: Q01DX001 (ip), vehicle: Klucel (hydroxypropylcellulose) (HPC), higher = longer survival) 107 % of control; (endpoint: median survival time, dose: 6.25 mg/kg/injection, schedule: Q01DX001 (ip), vehicle: Klucel (hydroxypropylcellulose) (HPC), higher = longer survival) 104 % of control; (endpoint: median survival time, dose: 12.5 mg/kg/injection, schedule: Q01DX001 (ip), vehicle: Klucel (hydroxypropylcellulose) (HPC), higher = longer survival) 103 % of control.
Regarding `CC(=O)OC1C=CC(=O)OC1C1OC1C` (centres undefined), the T/C was 105 % of control (endpoint: mean tumor weight, dose: 4.0 mg/kg/injection, schedule: Q01DX011 (ip), vehicle: saline, higher = larger tumour); 81 % of control (endpoint: mean tumor weight, dose: 6.0 mg/kg/injection, schedule: Q01DX011 (ip), vehicle: saline, higher = larger tumour); 91 % of control (endpoint: mean tumor weight, dose: 9.0 mg/kg/injection, schedule: Q01DX011 (ip), vehicle: saline, higher = larger tumour); 62 % of control (endpoint: mean tumor weight, dose: 19.0 mg/kg/injection, schedule: Q01DX011 (ip), vehicle: saline, higher = larger tumour).
Regarding `CO/[N+]([O-])=C\C(=O)N/C=C/C(=O)O`, the T/C was 80 % of control (endpoint: mean tumor weight, dose: 22.0 mg/kg/injection, schedule: Q01DX011 (ip), vehicle: carboxymethylcellulose (CMC), higher = larger tumour) and 57 % of control (endpoint: mean tumor weight, dose: 33.0 mg/kg/injection, schedule: Q01DX011 (ip), vehicle: carboxymethylcellulose (CMC), higher = larger tumour).
As for `COC(=O)C1=C(C(=O)OC)C2CC3C4CC=C5CC(OC(C)=O)CCC5(C)C4CCC3(C)C2=C(OC(C)=O)C1` (centres undefined), the T/C is 105 % of control (endpoint: mean tumor weight, dose: 62.5 mg/kg/injection, schedule: Q01DX011 (sc), vehicle: saline, higher = larger tumour); 99 % of control (endpoint: mean tumor weight, dose: 125.0 mg/kg/injection, schedule: Q01DX011 (sc), vehicle: saline, higher = larger tumour); 97 % of control (endpoint: mean tumor weight, dose: 250.0 mg/kg/injection, schedule: Q01DX011 (sc), vehicle: saline, higher = larger tumour).
Take `CCC[CH2][Sn]1([CH2]CCC)[O]OC(c2ccc(C)cc2)[O]1` (centres undefined): the T/C reads like this: (endpoint: median survival time, dose: 0.19 mg/kg/injection, schedule: Q01DX009 (ip), vehicle: saline with Tween-80, higher = longer survival) 98 % of control; (endpoint: median survival time, dose: 0.75 mg/kg/injection, schedule: Q01DX009 (ip), vehicle: saline with Tween-80, higher = longer survival) 107 % of control; (endpoint: median survival time, dose: 1.5 mg/kg/injection, schedule: Q01DX009 (ip), vehicle: saline with Tween-80, higher = longer survival) 98 % of control; (endpoint: median survival time, dose: 3.0 mg/kg/injection, schedule: Q01DX009 (ip), vehicle: saline with Tween-80, higher = longer survival) 119 % of control; (endpoint: median survival time, dose: 3.13 mg/kg/injection, schedule: Q01DX009 (ip), vehicle: saline with Tween-80, higher = longer survival) 121 % of control.
As to `CCOc1ccc(Nc2ncnc3nc[nH]c23)cc1CN(CCCl)CCCl`, the T/C reads like this: (endpoint: mean tumor weight, dose: 1.2 mg/kg/injection, schedule: Q01DX011 (ip), vehicle: other, higher = larger tumour) 54 % of control; (endpoint: mean tumor weight, dose: 2.3 mg/kg/injection, schedule: Q01DX011 (ip), vehicle: other, higher = larger tumour) 46 % of control.
As for `COC1=CC(=O)N(C(=O)C2CSC(C(CO)NC(=O)c3csc(/C=N/O)n3)=N2)C1` (centres undefined), the T/C is 92 % of control under setting [5] and 92 % of control (endpoint: median survival time, dose: 200.0 mg/kg/injection, schedule: Q01DX009 (ip), vehicle: Klucel (hydroxypropylcellulose) (HPC), higher = longer survival).
In the case of `Fc1ccc(NC(=S)Nc2cc(Cl)cc(Cl)c2)cc1`, the T/C (endpoint: mean tumor weight, dose: 7.5 mg/kg/injection, schedule: Q01DX011 (ip), vehicle: carboxymethylcellulose (CMC), higher = larger tumour) is 60 % of control.
As to `Cc1c2oc3c(C)ccc(C(=O)NC4C(=O)NC(C(C)C)C(=O)N5CCCC5C(=O)N(C)CC(=O)N(C)C(C(C)C)C(=O)OC4C)c3nc-2c(C(=O)NC2C(=O)NC(C(C)C)C(=O)N3CC(=O)CC3C(=O)N(C)CC(=O)N(C)C(C(C)C)C(=O)OC2C)c(N)c1=O` (centres undefined) (I: TV[X1][Sar][NMeV] / II: TVP[Sar][NMeV]; ester I:1-I:C, II:1-II:C; linker I:N-II:N via Actinocin(1to9); configuration not given here), the T/C was 112 % of control (endpoint: median survival time, dose: 3.1 micrograms/kg/injection, schedule: Q01DX009 (ip), vehicle: water, higher = longer survival); 111 % of control (endpoint: median survival time, dose: 6.2 micrograms/kg/injection, schedule: Q01DX009 (ip), vehicle: water, higher = longer survival); 108 % of control (endpoint: median survival time, dose: 9.4 micrograms/kg/injection, schedule: Q04DX003 (ip), vehicle: water, higher = longer survival); 87 % of control (endpoint: median survival time, dose: 12.5 micrograms/kg/injection, schedule: Q01DX009 (ip), vehicle: water, higher = longer survival); 109 % of control (endpoint: median survival time, dose: 18.8 micrograms/kg/injection, schedule: Q04DX003 (ip), vehicle: water, higher = longer survival); 108 % of control (endpoint: median survival time, dose: 37.5 micrograms/kg/injection, schedule: Q04DX003 (ip), vehicle: water, higher = longer survival).
For `CN1C2CCC1CC(OC(=O)C(CO)c1ccccc1)C2` (centres undefined), the T/C under setting [4] was 92 % of control, the T/C under setting [2] is 72 % of control and the T/C under setting [3] was 154 % of control.
With `COc1cc(OC)c(OC)cc1/C=C\c1ccnc2ccccc12`, the T/C by setting is: (endpoint: median survival time, dose: 50.0 mg/kg/injection, schedule: Q01DX009 (ip), vehicle: Klucel (hydroxypropylcellulose) (HPC), higher = longer survival) 94 % of control; under setting [5], 93 % of control; (endpoint: median survival time, dose: 400.0 mg/kg/injection, schedule: Q01DX009 (ip), vehicle: Klucel (hydroxypropylcellulose) (HPC), higher = longer survival) 97 % of control.
Consider `CCOC(=O)C1CCC(NC(=O)N(CCCl)N=O)CC1` (centres undefined), for which the T/C runs as follows: (endpoint: median survival time, dose: 8.6 mg/kg/injection, schedule: Q04DX004 (ip), vehicle: gum acacia, higher = longer survival) 155 % of control; (endpoint: median survival time, dose: 13.0 mg/kg/injection, schedule: Q04DX004 (ip), vehicle: gum acacia, higher = longer survival) 155 % of control and 168 % of control and 204 % of control; (endpoint: median survival time, dose: 15.0 mg/kg/injection, schedule: Q07DX002 (ip), vehicle: gum acacia, higher = longer survival) 413 % of control; (endpoint: median survival time, dose: 18.0 mg/kg/injection, schedule: Q04DX004 (ip), vehicle: gum acacia, higher = longer survival) 176 % of control and 252 % of control; (endpoint: median survival time, dose: 20.0 mg/kg/injection, schedule: Q04DX004 (ip), vehicle: gum acacia, higher = longer survival) 181 % of control; (endpoint: median survival time, dose: 21.0 mg/kg/injection, schedule: Q07DX002 (ip), vehicle: gum acacia, higher = longer survival) 413 % of control. The T/C is, setting by setting: (endpoint: median survival time, dose: 22.0 mg/kg/injection, schedule: Q07DX002 (ip), vehicle: gum acacia, higher = longer survival) 191 % of control; (endpoint: median survival time, dose: 24.0 mg/kg/injection, schedule: Q07DX002 (ip), vehicle: gum acacia, higher = longer survival) 232 % of control and 245 % of control; (endpoint: median survival time, dose: 28.0 mg/kg/injection, schedule: Q07DX002 (ip), vehicle: gum acacia, higher = longer survival) 184 % of control; (endpoint: median survival time, dose: 30.0 mg/kg/injection, schedule: Q01DX001 (ip), vehicle: gum acacia, higher = longer survival) 157 % of control and 166 % of control and 187 % of control; (endpoint: median survival time, dose: 30.0 mg/kg/injection, schedule: Q04DX004 (ip), vehicle: gum acacia, higher = longer survival) 70 % of control; (endpoint: median survival time, dose: 33.0 mg/kg/injection, schedule: Q07DX002 (ip), vehicle: gum acacia, higher = longer survival) 88 % of control and 90 % of control. Further, the T/C is 16 % of control (endpoint: median tumor weight (est.), dose: 15.0 mg/kg/injection, schedule: Q01DX001 (ip), vehicle: gum acacia, higher = larger tumour) and 8 % of control (endpoint: median tumor weight (est.), dose: 29.0 mg/kg/injection, schedule: Q01DX001 (ip), vehicle: gum acacia, higher = larger tumour).
